This note sets out measurements from patent US8513238B2 (Hoffmann-La Roche Inc., priority 2010, dated 2013).

For one experiment, the target named is T1, human V1a receptor (Homo sapiens, UniProt P37288).
T1 construct: expressed in transfected cells; host or cells: HEK293 cells, transiently transfected; membranes prepared
T1 sequence (P37288 whole entry): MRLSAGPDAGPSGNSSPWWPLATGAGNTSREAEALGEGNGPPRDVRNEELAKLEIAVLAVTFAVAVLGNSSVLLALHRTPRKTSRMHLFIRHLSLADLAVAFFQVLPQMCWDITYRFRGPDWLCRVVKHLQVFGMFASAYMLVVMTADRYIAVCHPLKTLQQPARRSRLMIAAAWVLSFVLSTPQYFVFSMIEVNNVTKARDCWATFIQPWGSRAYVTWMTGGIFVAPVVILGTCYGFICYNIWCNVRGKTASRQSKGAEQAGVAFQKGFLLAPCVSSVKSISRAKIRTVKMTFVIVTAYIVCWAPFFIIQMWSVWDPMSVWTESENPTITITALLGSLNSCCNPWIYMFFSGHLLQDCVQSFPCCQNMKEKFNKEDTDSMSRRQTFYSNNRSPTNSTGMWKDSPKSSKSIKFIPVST
As to the kind of experiment: human V1a receptor binding (3H-Vasopressin SPA, HEK293 membranes). As to conditions: membranes of HEK293 cells transiently transfected with human V1a receptor, Ki by Cheng-Prussoff. The method, then: The human V1a receptor was cloned by RT-PCR from total human liver RNA. The coding sequence was subcloned in an expression vector after sequencing to confirm the identity of the amplified sequence. […] Cell membranes were prepared from HEK293 cells transiently transfected with the expression vector and grown in 20 liter fermenters with the following protocol.
50 g of cells are resuspended in 30 ml freshly prepared ice cold Lysis buffer (50 mM HEPES, 1 mM EDTA, 10 mM magnesium dichloride adjusted to pH=7.4+complete cocktail of protease inhibitor (Roche Diagnostics)). Homogenized with Polytron for 1 min and sonicated on ice for 2×2 minutes at 80% intensity (Vibracell sonicator). The preparation is centrifuged 20 min at 500 g at 4° C., the pellet is discarded and the supernatant centrifuged 1 hour at 43,000 g at 4° C. (19,000 rpm). The pellet is resuspended in 12.5 ml Lysis buffer+12.5 ml sucrose 20% and homogenized using a Polytron for 1-2 min. The protein concentration is determined by the Bradford method and aliquots are stored at −80° C. until use. For binding studies 60 mg Yttrium silicate SPA beads (Amersham®) are mixed with an aliquot of membrane in binding buffer (50 mM Tris, 120 mM sodium chloride, 5 mM potassium chloride, 2 mM calcium dichloride, 10 mM magnesium dichloride) for 15 minutes with mixing. 50 μl of bead/membrane mixture is then added to each well of a 96 well plate, followed by 50 μl of 4 nM 3H-Vasopressin (American Radiolabeled Chemicals). For total binding measurement 100 μl of binding buffer are added to the respective wells, for non-specific binding 100 μl of 8.4 mM cold vasopressin and for compound testing 100 μl of a serial dilution of each compound in 2% dimethyl sulfoxide. The plate is incubated 1 h at room temperature, centrifuged 1 min at 1000 g and counted on a Packard Top-Count. Non-specific binding counts are subtracted from each well and data is normalized to the maximum specific binding set at 100%. To calculate an IC50 the curve is fitted using a non-linear regression model (XLfit) and the Ki is calculated using the Cheng-Prussoff equation.
On to `Cc1cc([C@H]2CC[C@H](c3nnc4n3-c3ccc(Cl)cc3CN(C(C)C)C4)CC2)no1` [Example 26, trans-8-Chloro-5-isoproyl-1-[4-(5-methyl-isoxazol-3-yl)-cyclohexyl]-5,6-dihydro-4H-2,3,5,10b-tetraaza-benzo[e]azulene], for which the “pKi (hV1a)” value came to 9.45.

The same experiment, now with this note: membranes of HEK293 cells transiently transfected with human V1a receptor, Ki by Cheng-Prussoff, read-out: pKi (hV1a) (converted).
`Cc1nc([C@H]2CC[C@H](c3nnc4n3-c3ccc(Cl)cc3CN(C(=O)OC(C)(C)C)C4)CC2)cs1` [Example 19, trans-8-Chloro-1-[4-(2-methyl-thiazol-4-yl)-cyclohexyl]-4H,6H-2,3,5,10b-tetraaza-benzo[e]azulene-5-carboxylic acid tert-butyl ester]: the Ki is 0.2 nM.
Consider `Cc1nc([C@H]2CC[C@H](c3nnc4n3-c3ccc(Cl)cc3CN(C)C4)CC2)ns1` (stereo in doubt) [Example 97, trans-8-Chloro-5-methyl-1-[4-(5-methyl-[1,2,4]thiadiazol-3-yl)-cyclohexyl]-5,6-dihydro-4H-2,3,5,10b-tetraaza-benzo[e]azulene], for which the Ki is 2.88 nM.
Turning to `Cc1cc([C@H]2CC[C@H](c3nnc4n3-c3ccc(Cl)cc3CN(C(=O)CO)C4)CC2)no1` [Example 32, trans-1-{8-Chloro-1-[4-(5-methyl-isoxazol-3-yl)-cyclohexyl]-4H,6H-2,3,5,10b-tetraaza-benzo[e]azulen-5-yl}-2-hydroxy-ethanone], the Ki was 2.88 nM.
As to `Cc1csc([C@H]2CC[C@H](c3nnc4n3-c3ccc(Cl)cc3CNC4)CC2)n1` [Example 17, trans-8-Chloro-1-[4-(4-methyl-thiazol-2-yl)-cyclohexyl]-5,6-dihydro-4H-2,3,5,10b-tetraaza-benzo[e]azulene], the Ki is 7.59 nM.
In the case of `Cc1nnc([C@H]2CC[C@H](c3nnc4n3-c3ccc(Cl)cc3CN(C(=O)OC(C)(C)C)C4)CC2)o1` [Example 63, trans-8-Chloro-1-[4-(5-methyl-[1,3,4]oxadiazol-2-yl)-cyclohexyl]-4H,6H-2,3,5,10b-tetraaza-benzo[e]azulene-5-carboxylic acid tert-butyl ester], the Ki is 1.58 nM.
For `Cc1nc([C@H]2CC[C@H](c3nnc4n3-c3ccc(Cl)cc3CN(C)C4)CC2)no1` [Example 74, trans-8-Chloro-5-methyl-1-[4-(5-methyl-[1,2,4]oxadiazol-3-yl)-cyclohexyl]-5,6-dihydro-4H-2,3,5,10b-tetraaza-benzo[e]azulene], the Ki is 3.24 nM.
In the case of `Cc1nc([C@H]2CC[C@H](c3nnc4n3-c3ccc(Cl)cc3CN(C(=O)OC(C)(C)C)C4)CC2)no1` [Example 72, trans-8-Chloro-1-[4-(5-methyl-[1,2,4]oxadiazol-3-yl)-cyclohexyl]-4H,6H-2,3,5,10b-tetraaza-benzo[e]azulene-5-carboxylic acid tert-butyl ester], the Ki is 0.708 nM.
Turning to `Clc1ccc2c(c1)CNCc1nnc([C@H]3CC[C@H](n4cccn4)CC3)n1-2` [Example 110, trans-8-Chloro-1-(4-pyrazol-1-yl-cyclohexyl)-5,6-dihydro-4H-2,3,5,10b-tetraaza-benzo[e]azulene], the Ki was 42.7 nM.
As to `CN1Cc2cc(Cl)ccc2-n2c(nnc2[C@H]2CC[C@H](c3noc4c3CCCC4)CC2)C1` [Example 56, trans-8-Chloro-5-methyl-1-[4-(4,5,6,7-tetrahydro-benzo[d]isoxazol-3-yl)-cyclohexyl]-5,6-dihydro-4H-2,3,5,10b-tetraaza-benzo[e]azulene], the Ki is 1.58 nM.
Regarding `CCc1nc([C@H]2CC[C@@H](c3nnc4n3-c3ccc(Cl)cc3CN(C)C4)CC2)no1` [Example 90], the Ki was 295 nM.
With `Cc1onc([C@H]2CC[C@H](c3nnc4n3-c3ccc(Cl)cc3CN(C(=O)OC(C)(C)C)C4)CC2)c1C` [Example 39, trans-8-Chloro-1-[4-(4,5-dimethyl-isoxazol-3-yl)-cyclohexyl]-4H,6H-2,3,5,10b-tetraaza-benzo[e]azulene-5-carboxylic acid tert-butyl ester], the Ki was 0.2 nM.
On to `CC(C)(C)OC(=O)N1Cc2cc(Cl)ccc2-n2c(nnc2[C@H]2CC[C@H](c3nccs3)CC2)C1` [Example 13, trans-8-Chloro-1-(4-thiazol-2-yl-cyclohexyl)-4H,6H-2,3,5,10b-tetraaza-benzo[e]azulene-5-carboxylic acid tert-butyl ester], for which the Ki was 1 nM.
With `CC(C)c1nc([C@H]2CC[C@H](c3nnc4n3-c3ccc(Cl)cc3CN(C(=O)OC(C)(C)C)C4)CC2)no1` [Example 92, trans-8-Chloro-1-[4-(5-isopropyl-[1,2,4]oxadiazol-3-yl)-cyclohexyl]-4H,6H-2,3,5,10b-tetraaza-benzo[e]azulene-5-carboxylic acid tert-butyl ester], the Ki was 3.09 nM.
As to `CC(=O)N1Cc2cc(Cl)ccc2-n2c(nnc2[C@H]2CC[C@H](c3noc(C)n3)CC2)C1` [Example 80, trans-1-{8-Chloro-1-[4-(5-methyl-[1,2,4]oxadiazol-3-yl)-cyclohexyl]-4H,6H-2,3,5,10b-tetraaza-benzo[e]azulen-5-yl}-ethanone], the Ki is 22.9 nM.
For the molecule `Cc1cc([C@H]2CC[C@H](c3nnc4n3-c3ccc(Cl)cc3CN(C(=O)OC(C)(C)C)C4)CC2)no1` [Example 22, trans-8-Chloro-1-[4-(5-methyl-isoxazol-3-yl)-cyclohexyl]-4H,6H-2,3,5,10b-tetraaza-benzo[e]azulene-5-carboxylic acid tert-butyl ester], the Ki was 0.302 nM.
Regarding `CCN1Cc2cc(Cl)ccc2-n2c(nnc2[C@H]2CC[C@H](c3cc(C)on3)CC2)C1` [Example 25, trans-8-Chloro-5-ethyl-1-[4-(5-methyl-isoxazol-3-yl)-cyclohexyl]-5,6-dihydro-4H-2,3,5,10b-tetraaza-benzo[e]azulene], the Ki was 1.74 nM.
Turning to `Cc1nc([C@H]2CC[C@H](c3nnc4n3-c3ccc(Cl)cc3CN(C3CCC3)C4)CC2)no1` [Example 77, trans-8-Chloro-5-cyclobutyl-1-[4-(5-methyl-[1,2,4]oxadiazol-3-yl)-cyclohexyl]-5,6-dihydro-4H-2,3,5,10b-tetraaza-benzo[e]azulene], the Ki was 1.51 nM.
The same measure, in the same setting: the same measure for `CN1Cc2cc(Cl)ccc2-n2c(nnc2[C@H]2CC[C@H](c3noc4c3CCC4)CC2)C1` [Example 107, trans-8-Chloro-1-[4-(5,6-dihydro-4H-cyclopenta[d]isoxazol-3-yl)-cyclohexyl]-5-methyl-5,6-dihydro-4H-2,3,5,10b-tetraaza-benzo[e]azulene]: 1.58 nM; for `Cc1onc([C@H]2CC[C@H](c3nnc4n3-c3ccc(Cl)cc3CNC4)CC2)c1C` [Example 40, trans-8-Chloro-1-[4-(4,5-dimethyl-isoxazol-3-yl)-cyclohexyl]-5,6-dihydro-4H-2,3,5,10b-tetraaza-benzo[e]azulene]: 4.79 nM; for `Cc1nnc([C@H]2CC[C@H](c3nnc4n3-c3ccc(Cl)cc3CNC4)CC2)o1` [Example 64, trans-8-Chloro-1-[4-(5-methyl-[1,3,4]oxadiazol-2-yl)-cyclohexyl]-5,6-dihydro-4H-2,3,5,10b-tetraaza-benzo[e]azulene]: 204 nM.
Regarding `Cc1cnc([C@H]2CC[C@H](c3nnc4n3-c3ccc(Cl)cc3CN(C)C4)CC2)o1` [Example 9, trans-8-Chloro-5-methyl-1-[4-(5-methyl-oxazol-2-yl)-cyclohexyl]-5,6-dihydro-4H-2,3,5,10b-tetraaza-benzo[e]azulene], the Ki is 2.19 nM.
In the case of `Cc1cc([C@H]2CC[C@H](c3nnc4n3-c3ccc(F)cc3CN(C)C4)CC2)no1` [Example 38, trans-8-Fluoro-1-[4-(5-methyl-isoxazol-3-yl)-cyclohexyl]-5-methyl-5,6-dihydro-4H-2,3,5,10b-tetraaza-benzo[e]azulene], the Ki was 18.6 nM.
In the case of `Cc1coc([C@H]2CC[C@H](c3nnc4n3-c3ccc(Cl)cc3CNC4)CC2)n1` [Example 5, trans-8-Chloro-1-[4-(4-methyl-oxazol-2-yl)-cyclohexyl]-5,6-dihydro-4H-2,3,5,10b-tetraaza-benzo[e]azulene], the Ki was 32.4 nM.
On the same count and under the same terms, with `CCN1Cc2cc(Cl)ccc2-n2c(nnc2[C@H]2CC[C@H](c3noc(C)n3)CC2)C1` [Example 75, trans-8-Chloro-5-ethyl-1-[4-(5-methyl-[1,2,4]oxadiazol-3-yl)-cyclohexyl]-5,6-dihydro-4H-2,3,5,10b-tetraaza-benzo[e]azulene] the figure was 6.76 nM.
Consider `CCc1cc([C@H]2CC[C@@H](c3nnc4n3-c3ccc(Cl)cc3CN(C(=O)OC(C)(C)C)C4)CC2)no1` [Example 48, cis-8-Chloro-1-[4-(5-ethyl-isoxazol-3-yl)-cyclohexyl]-4H,6H-2,3,5,10b-tetraaza-benzo[e]azulene-5-carboxylic acid tert-butyl ester], for which the Ki was 8.32 nM.
